“And” between values parts separate entries of the source, which are not always exact repeats. Equal entries are not always repeated.
Tested on: 616215-338-R-J1-PDC complex spheroids, viability % test/control
Assay: Anticancer human tumor 616215-338-R-J1-PDC patient-derived colon adenocarcinoma cell line growth inhibition [CLK]
Conditions: for viability, T/C: stronger effect = lower value
Summary of the method: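 Multi-cell-type spheroids combined patient-derived tumor cells with HUVEC endothelial cells and human mesenchymal stem cells. Paired agents were dosed in half-log steps down from about clinical Cmax, or from 10 microM where Cmax was unknown.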

[1] = curve of first compound, second compound 0.0316 µM
[2] = curve of first compound, second compound 0.1 µM
[3] = curve of first compound, second compound 0.316 µM
[4] = curve of first compound, second compound 1 µM
[5] = curve of first compound, second compound 3.16 µM
[6] = curve of first compound, second compound 10 µM
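Also: spheroids exposed to agents for 7 days.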
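For viability, T/C in this document: 100% = DMSO vehicle wells.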

CC(C)CC(NC(=O)C(Cc1ccccc1)NC(=O)c1cnccn1)B(O)O (stereo not drawn) + CN1CCN(c2cc(C(=O)Nc3cc4cc(-c5cnn(C)c5)ccc4cn3)ccn2)CC1 was tested, and the IC50 [1] was 5.54 nM, the IC50 [2] was 5.8 nM and the IC50 [3] was < 0.949 nM. The IC50 [4] was < 0.949 nM, the IC50 [5] was < 0.949 nM and the IC50 [6] was < 0.949 nM. It also gave a viability, T/C (second compound 0.0316 µM, first compound 0.000949 µM) of 105%, a viability, T/C (second compound 0.0316 µM, first compound 0.003 µM) of 107% and a viability, T/C (second compound 0.0316 µM, first compound 0.00949 µM) of 1.23%. The viability, T/C (second compound 0.0316 µM, first compound 0.03 µM) was 0.23%, the viability, T/C (second compound 0.0316 µM, first compound 0.0949 µM) was 0.16% and the viability, T/C (second compound 0.0316 µM, first compound 0.3 µM) was 1.94%. For the same compound, the viability, T/C (second compound 0.1 µM, first compound 0.000949 µM) was 121%, the viability, T/C (second compound 0.1 µM, first compound 0.003 µM) was 116% and the viability, T/C (second compound 0.1 µM, first compound 0.00949 µM) was 0.22%. It also gave a viability, T/C (second compound 0.1 µM, first compound 0.03 µM) of 0.19%, a viability, T/C (second compound 0.1 µM, first compound 0.0949 µM) of 0.18% and a viability, T/C (second compound 0.1 µM, first compound 0.3 µM) of 0.18%. For the same compound, the viability, T/C (second compound 0.316 µM, first compound 0.000949 µM) was 29.7%, the viability, T/C (second compound 0.316 µM, first compound 0.003 µM) was 4.76% and the viability, T/C (second compound 0.316 µM, first compound 0.00949 µM) was 0.19%. It also gave a viability, T/C (second compound 0.316 µM, first compound 0.03 µM) of 0.14%, a viability, T/C (second compound 0.316 µM, first compound 0.0949 µM) of 0.16% and a viability, T/C (second compound 0.316 µM, first compound 0.3 µM) of 0.13%. It also gave a viability, T/C (second compound 1 µM, first compound 0.000949 µM) of 0.15%, a viability, T/C (second compound 1 µM, first compound 0.003 µM) of 0.17% and a viability, T/C (second compound 1 µM, first compound 0.00949 µM) of 0.34%. For the same compound, the viability, T/C (second compound 1 µM, first compound 0.03 µM) was 0.1%, the viability, T/C (second compound 1 µM, first compound 0.0949 µM) was 0.1% and the viability, T/C (second compound 1 µM, first compound 0.3 µM) was 1.57%. It also gave a viability, T/C (second compound 3.16 µM, first compound 0.000949 µM) of 0.09%, a viability, T/C (second compound 3.16 µM, first compound 0.003 µM) of 0.13% and a viability, T/C (second compound 3.16 µM, first compound 0.00949 µM) of 0.12%. It also gave a viability, T/C (second compound 3.16 µM, first compound 0.03 µM) of 0.08%, a viability, T/C (second compound 3.16 µM, first compound 0.0949 µM) of 1.71% and a viability, T/C (second compound 3.16 µM, first compound 0.3 µM) of 0.13%. It also gave a viability, T/C (second compound 10 µM, first compound 0.000949 µM) of 0.08%, a viability, T/C (second compound 10 µM, first compound 0.003 µM) of 0.13% and a viability, T/C (second compound 10 µM, first compound 0.00949 µM) of 0.15%. The viability, T/C (second compound 10 µM, first compound 0.03 µM) was 0.11%, the viability, T/C (second compound 10 µM, first compound 0.0949 µM) was 2.22% and the viability, T/C (second compound 10 µM, first compound 0.3 µM) was 0.2%.

CNC(=O)c1ccc(Nc2nc(OC3CCCC3)c3c(-c4ccc5nc(C)oc5c4)c[nH]c3n2)c(OC)c1 was tested, and the viability, T/C (compound 0.0316 µM) was 90.7% [middle of 12 runs], the viability, T/C (compound 0.1 µM) was 55.7% [middle of 12 runs] and the viability, T/C (compound 0.316 µM) was 44.2% [middle of 12 runs]. For the same compound, the viability, T/C (compound 1 µM) was 45.1% [middle of 12 runs], the viability, T/C (compound 3.16 µM) was 42.3% [middle of 12 runs] and the viability, T/C (compound 10 µM) was 40.3% [middle of 12 runs]. For the same compound, the IC50 (compound alone, run of 08/01/2023) was 177 nM [middle of 12 runs].

With C=C(F)C(=O)N1CCN(c2nc(OCC3CCCN3C)nc3c2CCN(c2cccc4cccc(Cl)c24)C3)CC1CC#N (stereo not drawn) + CN1CCN(c2cc(C(=O)Nc3cc4cc(-c5cnn(C)c5)ccc4cn3)ccn2)CC1 the IC50 [1] was 5870 nM, the IC50 [2] was 6070 nM and the IC50 [3] was < 31.6 nM. For the same compound, the IC50 [4] was < 31.6 nM, the IC50 [5] was < 31.6 nM and the IC50 [6] was < 31.6 nM. For the same compound, the viability, T/C (second compound 0.0316 µM, first compound 0.0316 µM) was 102%, the viability, T/C (second compound 0.0316 µM, first compound 0.1 µM) was 109% and the viability, T/C (second compound 0.0316 µM, first compound 0.316 µM) was 105%. It also gave a viability, T/C (second compound 0.0316 µM, first compound 1 µM) of 106%, a viability, T/C (second compound 0.0316 µM, first compound 3.16 µM) of 116% and a viability, T/C (second compound 0.0316 µM, first compound 10 µM) of 0.26%. The viability, T/C (second compound 0.1 µM, first compound 0.0316 µM) was 114%, the viability, T/C (second compound 0.1 µM, first compound 0.1 µM) was 120% and the viability, T/C (second compound 0.1 µM, first compound 0.316 µM) was 107%. The viability, T/C (second compound 0.1 µM, first compound 1 µM) was 116%, the viability, T/C (second compound 0.1 µM, first compound 3.16 µM) was 119% and the viability, T/C (second compound 0.1 µM, first compound 10 µM) was 0.19%. It also gave a viability, T/C (second compound 0.316 µM, first compound 0.0316 µM) of 35.1%, a viability, T/C (second compound 0.316 µM, first compound 0.1 µM) of 45.4% and a viability, T/C (second compound 0.316 µM, first compound 0.316 µM) of 40.2%. It also gave a viability, T/C (second compound 0.316 µM, first compound 1 µM) of 38.8%, a viability, T/C (second compound 0.316 µM, first compound 3.16 µM) of 11.3% and a viability, T/C (second compound 0.316 µM, first compound 10 µM) of 0.12%. The viability, T/C (second compound 1 µM, first compound 0.0316 µM) was 0.28%, the viability, T/C (second compound 1 µM, first compound 0.1 µM) was 0.24% and the viability, T/C (second compound 1 µM, first compound 0.316 µM) was 0.31%. The viability, T/C (second compound 1 µM, first compound 1 µM) was 0.16%, the viability, T/C (second compound 1 µM, first compound 3.16 µM) was 0.14% and the viability, T/C (second compound 1 µM, first compound 10 µM) was 0.11%. For the same compound, the viability, T/C (second compound 3.16 µM, first compound 0.0316 µM) was 0.16%, the viability, T/C (second compound 3.16 µM, first compound 0.1 µM) was 0.16% and the viability, T/C (second compound 3.16 µM, first compound 0.316 µM) was 0.16%. It also gave a viability, T/C (second compound 3.16 µM, first compound 1 µM) of 0.18%, a viability, T/C (second compound 3.16 µM, first compound 3.16 µM) of 2.55% and a viability, T/C (second compound 3.16 µM, first compound 10 µM) of 3.36%. It also gave a viability, T/C (second compound 10 µM, first compound 0.0316 µM) of 0.24%, a viability, T/C (second compound 10 µM, first compound 0.1 µM) of 0.21% and a viability, T/C (second compound 10 µM, first compound 0.316 µM) of 0.22%. For the same compound, the viability, T/C (second compound 10 µM, first compound 1 µM) was 0.25%, the viability, T/C (second compound 10 µM, first compound 3.16 µM) was 1.31% and the viability, T/C (second compound 10 µM, first compound 10 µM) was 0.21%.

In the case of Cn1ncnc1[C@H]1c2n[nH]c(=O)c3cc(F)cc(c23)N[C@@H]1c1ccc(F)cc1, the viability, T/C (compound 0.000316 µM) is reported as 92% and 98.4%, the viability, T/C (compound 0.001 µM) is reported as 105% and 97.6% and the viability, T/C (compound 0.00316 µM) is reported as 102% and 94.1%. The viability, T/C (compound 0.01 µM) was 95% and 95.3%, the viability, T/C (compound 0.0316 µM) was 116% and 114% and the viability, T/C (compound 0.1 µM) was 106% and 116%. For the same compound, the IC50 (curve of compound) was > 100 nM.

From PubChem BioAssay AID2060610 (Molecular Pharmacology Branch, DTP, NCI, 2025)
